Read-outs that look alike come from different tables or passages of the source.
Assay: Tigecycline plasma PK and % F after PO enteric-coated capsule in dogs
Type: in vivo, Beagle dogs
Settings: for concentration at 0 min: Time (min) 0.0; for concentration at 0.3 min: Time (min) 0.3; for concentration at 0.7 min: Time (min) 0.7; for concentration at 24 min: Time (min) 24.0; for Predicted AUC(0-t), % Difference / Predicted Mean Cmax, % Difference: observed vs predicted from 15 mg results; for Predicted AUC(0-t) / Predicted Mean Cmax: predicted from 15 mg results
Protocol: Adult beagle dogs weighing approximately 9 to 15 kg were used in the study. […] Room temperature was set to be maintained between approximately 20±5° C. Relative humidity was monitored but not controlled.
TEKLAD™ Certified Canine Diet was provided once daily in amounts (˜400 grams) appropriate for the size and age of the animals. Tap water was available ad libitum via automatic watering device or water bowls.
Oral dosing of enteric-coated capsules was accomplished by administering them to the back of the dog's mouth, followed by a chase of 5 mL water to ensure swallowing.
Water was provided ad libitum. […] Subsequently, each group of animals was dosed based on the protocol, i.e. either IV, or PO by capsule.
Minocycline (VWR international) was used as an internal standard. Sample processing/clean-up of plasma samples was carried out offline by protein precipitation with acidified acetonitrile using 0.5% trifluoroacetic acid (TFA).
The HPLC system consisted of Shimadzu SIL-HTc HPLC system equipped with dual Shimadzu LC-10ADvp isopumps, a Shimadzu CTO-10ASvp column temperature controller and a Shimadzu SPD-10Avp variable wavelength detector. […] Mobile phase A consisted of 23 mM phosphate buffer pH 2.5 with 4 mM 1-octanesulfonic acid, while mobile phase B consisting of 90% acetonitrile, 10% water, with 2 mM 1-octanesulfonic acid. […] The total runtime was 18 minutes per sample. The mobile phase flow rate was 1.2 mL/min. Detection was performed using the SPD-10Avp variable wavelength detector set at 350 nm, with a sensitivity of 0.001 aufs.
The samples were then centrifuged under refrigeration at 13 k rpm for 5 minutes. The supernatant was taken and the liquid removed to dryness under nitrogen in a turbovap. The dried extract was reconstituted in 60 μL of mobile phase A and the suspension was further centrifuged at 5 k rpm for 5 minutes to pellet any insoluble matter. The resulting supernatant was then injected onto the LC.
The unknown concentration in dog plasma samples was determined by interpolation of the peak area ratios of analyte:internal standard versus the ratio of their nominal concentrations into the regression line obtained from calibration standards spiked in pooled dog plasma. No regression weighting was used for the calculations. […] The calibration curve covered the range of 0.05 μg/mL to 5 μg/mL. […]
The capsules were enterically coated using a standard preclinical protocol to 10% weight gain. Two studies were conducted.

[1] = female, beagle, dog, plasma, po, 45 mg, Tigecycline Plasma Concentration, PO 45 mg enteric-coated capsule with 500 mg CA and 100 mg LLC, SC430, individual dogs
[2] = female, beagle, dog, plasma, po, 45 mg, Tigecycline Plasma Concentration, PO 45 mg enteric-coated capsule with 500 mg CA and 100 mg LLC, SC430, mean

`CN(C)c1cc(NC(=O)CNC(C)(C)C)c(O)c2c1C[C@H]1C[C@H]3[C@H](N(C)C)C(O)=C(C(N)=O)C(=O)[C@@]3(O)C(O)=C1C2=O` [Tigecycline] showed a Tmax (female, beagle, dog, plasma, po, 45 mg, 45 mg Formulated (500 mg CA, 100 mg LLC) enteric coated capsule, Study 2 (SC430), mean (% CV), read-out: Tmax (converted)) of 1.67 h, an AUC(0-t) (female, beagle, dog, plasma, po, 45 mg, PO 45 mg enteric-coated capsule with 500 mg CA and 100 mg LLC (SC430), read-out: AUC(0-t), mean) of 574 ng·h/mL and a Cmax (female, beagle, dog, plasma, po, 45 mg, PO 45 mg enteric-coated capsule with 500 mg CA and 100 mg LLC (SC430), read-out: Cmax, mean) of 177 ng/mL. It also gave a bioavailability (female, beagle, dog, plasma, po, 45 mg, PO 45 mg enteric-coated capsule with 500 mg CA and 100 mg LLC (SC430), read-out: absolute % F, mean) of 15.5%, an AUC(0-t) (female, beagle, dog, plasma, po, 45 mg, PO 45 mg enteric-coated capsule with 500 mg CA and 100 mg LLC ([…]), SC430, mean, read-out: AUC(0-t)) of 574 ng·h/mL and a Cmax (female, beagle, dog, plasma, po, 45 mg, PO 45 mg enteric-coated capsule with 500 mg CA and 100 mg LLC ([…]), SC430, mean, read-out: Cmax) of 177 ng/mL. The Tmax (female, beagle, dog, plasma, po, 45 mg, PO 45 mg enteric-coated capsule with 500 mg CA and 100 mg LLC ([…]), SC430, mean, read-out: Tmax (converted)) was 1.67 h, the bioavailability (female, beagle, dog, plasma, po, 45 mg, PO 45 mg enteric-coated capsule with 500 mg CA and 100 mg LLC, SC430, calculated from IV PK data of SC431, mean, read-out: % F) was 15.5% and the bioavailability (female, beagle, dog, plasma, po, 45 mg, Study 2 (SC430), 45 mg Formulated enteric coated capsule (500 mg citric acid, 100 mg LLC), oral, dogs, N=5, mean (% CV), based on that study's IV arm, read-out: % F) was 15.5%. It also gave a Tmax (female, beagle, dog, plasma, po, 45 mg, Study 2 (SC430), 45 mg Formulated enteric coated capsule (500 mg citric acid, 100 mg LLC), oral, dogs, N=5, mean (% CV), read-out: Tmax (converted)) of 1.67 h, an AUC(0-t) (female, beagle, dog, plasma, po, 45 mg, Study 2 (SC430), 45 mg Formulated enteric coated capsule (500 mg citric acid, 100 mg LLC), oral, dogs, N=5, mean (% CV), sampling 24 h, read-out: AUC(0-t)) of 574 ng·h/mL and a Cmax (female, beagle, dog, plasma, po, 45 mg, Study 2 (SC430), 45 mg Formulated enteric coated capsule (500 mg citric acid, 100 mg LLC), oral, dogs, N=5, mean (% CV), sampling 24 h, read-out: Cmax) of 177 ng/mL. The concentration at 0 min [1] was 0 ng/mL, the concentration at 0 min [2] was 0 ng/mL and the concentration at 0.3 min [1] was 0 ng/mL. The concentration at 0.3 min [2] was 0 ng/mL, the concentration at 0.7 min [1] was 0 ng/mL and the concentration at 0.7 min [2] was 0 ng/mL. For the same molecule, the concentration at 1 min (female, beagle, dog, plasma, po, 45 mg, Tigecycline Plasma Concentration, Time (min) 1.0, PO 45 mg enteric-coated capsule with 500 mg CA and 100 mg LLC, SC430, mean) was 56.4 ng/mL, the concentration at […] (female, beagle, dog, plasma, po, 45 mg, Tigecycline Plasma Concentration, Time (min) 1.3, PO 45 mg enteric-coated capsule with 500 mg CA and 100 mg LLC, SC430, mean) was 58.3 ng/mL and the concentration at […] (female, beagle, dog, plasma, po, 45 mg, Tigecycline Plasma Concentration, Time (min) 1.7, PO 45 mg enteric-coated capsule with 500 mg CA and 100 mg LLC, SC430, mean) was 101 ng/mL. It also gave a concentration at 2 min (female, beagle, dog, plasma, po, 45 mg, Tigecycline Plasma Concentration, Time (min) 2.0, PO 45 mg enteric-coated capsule with 500 mg CA and 100 mg LLC, SC430, mean) of 144 ng/mL, a concentration at […] (female, beagle, dog, plasma, po, 45 mg, Tigecycline Plasma Concentration, Time (min) 2.3, PO 45 mg enteric-coated capsule with 500 mg CA and 100 mg LLC, SC430, mean) of 108 ng/mL and a concentration at […] (female, beagle, dog, plasma, po, 45 mg, Tigecycline Plasma Concentration, Time (min) 2.7, PO 45 mg enteric-coated capsule with 500 mg CA and 100 mg LLC, SC430, mean) of 98.6 ng/mL. The concentration at 3 min (female, beagle, dog, plasma, po, 45 mg, Tigecycline Plasma Concentration, Time (min) 3.0, PO 45 mg enteric-coated capsule with 500 mg CA and 100 mg LLC, SC430, mean) was 76.5 ng/mL, the concentration at […] (female, beagle, dog, plasma, po, 45 mg, Tigecycline Plasma Concentration, Time (min) 3.3, PO 45 mg enteric-coated capsule with 500 mg CA and 100 mg LLC, SC430, mean) was 68.7 ng/mL and the concentration at […] (female, beagle, dog, plasma, po, 45 mg, Tigecycline Plasma Concentration, Time (min) 3.7, PO 45 mg enteric-coated capsule with 500 mg CA and 100 mg LLC, SC430, mean) was 62 ng/mL. The concentration at 4 min (female, beagle, dog, plasma, po, 45 mg, Tigecycline Plasma Concentration, Time (min) 4.0, PO 45 mg enteric-coated capsule with 500 mg CA and 100 mg LLC, SC430, mean) was 51.7 ng/mL, the concentration at […] (female, beagle, dog, plasma, po, 45 mg, Tigecycline Plasma Concentration, Time (min) 4.5, PO 45 mg enteric-coated capsule with 500 mg CA and 100 mg LLC, SC430, mean) was 48.9 ng/mL and the concentration at 5 min (female, beagle, dog, plasma, po, 45 mg, Tigecycline Plasma Concentration, Time (min) 5.0, PO 45 mg enteric-coated capsule with 500 mg CA and 100 mg LLC, SC430, mean) was 50.6 ng/mL. It also gave a concentration at […] (female, beagle, dog, plasma, po, 45 mg, Tigecycline Plasma Concentration, Time (min) 5.5, PO 45 mg enteric-coated capsule with 500 mg CA and 100 mg LLC, SC430, mean) of 42.5 ng/mL, a concentration at 6 min (female, beagle, dog, plasma, po, 45 mg, Tigecycline Plasma Concentration, Time (min) 6.0, PO 45 mg enteric-coated capsule with 500 mg CA and 100 mg LLC, SC430, mean) of 35.2 ng/mL and a concentration at 8 min (female, beagle, dog, plasma, po, 45 mg, Tigecycline Plasma Concentration, Time (min) 8.0, PO 45 mg enteric-coated capsule with 500 mg CA and 100 mg LLC, SC430, mean) of 22.9 ng/mL. For the same molecule, the concentration at 10 min (female, beagle, dog, plasma, po, 45 mg, Tigecycline Plasma Concentration, Time (min) 10.0, PO 45 mg enteric-coated capsule with 500 mg CA and 100 mg LLC, SC430, mean) was 16.8 ng/mL, the concentration at 24 min [1] was 0 ng/mL and the concentration at 24 min [2] was 0 ng/mL. It also gave a Cmax (female, beagle, dog, plasma, po, 45 mg, target dose 45 mg, enterically coated capsule, read-out: Observed Mean Cmax) of 177 ng/mL, an AUC(0-t) (female, beagle, dog, plasma, po, 45 mg, target dose 45 mg, enterically coated capsule, time scale adjusted to 4 hours, read-out: Observed AUC(0-t)) of 266 ng·h/mL and a Tmax (female, beagle, dog, plasma, po, all studied oral formulations, read-out: Tmax, mean (converted)) of ~1.67 h. The “Predicted AUC(0-t), % Difference” value (target dose 30 mg) was −23.9%, the “Predicted Mean Cmax, % Difference” value (target dose 30 mg) was −24.8% and the “Predicted AUC(0-t)” value (target dose 30 mg) was 265 ng·h/mL. The “Predicted Mean Cmax” value (target dose 30 mg) was 151 ng/mL, the “Predicted AUC(0-t), % Difference” value (target dose 45 mg) was −49.4% and the “Predicted Mean Cmax, % Difference” value (target dose 45 mg) was −28.0%. For the same molecule, the “Predicted AUC(0-t)” value (target dose 45 mg) was 398 ng·h/mL and the “Predicted Mean Cmax” value (target dose 45 mg) was 226 ng/mL.

From patent US9526785B2, “Pharmaceuticals for oral delivery” (Enteris BioPharma, Inc., priority 2013, dated 2016)
